Several values for one entry are separate records, joined by “and”; a condition that tells them apart may be missing. Identical values can stand only once.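 Dose response: 5 concentrations. Exposure: 48 h. Format: 96-well plates. Endpoint: linear interpolation; highest concentration if not reached. GI50 marks 50% less growth. TGI: total growth inhibition.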
Columns and labels:
Test in all cases: NCI-60 cell line screen, 48 h
[1] = test system: 786-0 renal
[2] = test system: A498 renal
[3] = test system: A549 NSCLC
[4] = test system: ACHN renal
[5] = test system: BT-549 breast
[6] = test system: CAKI-1 renal
[7] = test system: CCRF-CEM leukemia
[8] = test system: COLO 205 colon
[9] = test system: DU-145 prostate
[10] = test system: EKVX NSCLC
[11] = test system: HCC-2998 colon
[12] = test system: HCT-116 colon
[13] = test system: HCT-15 colon
[14] = test system: HL-60(TB) leukemia
[15] = test system: HOP-62 NSCLC
[16] = test system: HOP-92 NSCLC
[17] = test system: HS 578T breast
[18] = test system: HT29 colon
[19] = test system: IGROV1 ovarian
[20] = test system: K-562 leukemia
[21] = test system: KM12 colon
[22] = test system: LOX IMVI melanoma
[23] = test system: M14 melanoma
[24] = test system: MALME-3M melanoma
[25] = test system: MCF7 breast
[26] = test system: MDA-MB-231 breast
[27] = test system: MDA-MB-435
[28] = test system: MDA-N
[29] = test system: MOLT-4 leukemia
[30] = test system: NCI-H226 lung
[31] = test system: NCI-H23 lung
[32] = test system: NCI-H460 lung
[33] = test system: NCI-H522 lung
[34] = test system: NCI/ADR-RES ovarian
[35] = test system: OVCAR-3 ovarian
[36] = test system: OVCAR-4 ovarian
[37] = test system: OVCAR-5 ovarian
[38] = test system: OVCAR-8 ovarian
[39] = test system: PC-3 prostate
[40] = test system: RPMI-8226 leukemia
[41] = test system: RXF 393 renal
[42] = test system: SF-268 CNS
[43] = test system: SF-295 CNS
[44] = test system: SF-539 CNS
[45] = test system: SK-MEL-2 melanoma
[46] = test system: SK-MEL-28 melanoma
[47] = test system: SK-MEL-5 melanoma
[48] = test system: SK-OV-3 ovarian
[49] = test system: SN12C renal
[50] = test system: SNB-19 CNS
[51] = test system: SNB-75 CNS
[52] = test system: SR leukemia
[53] = test system: SW-620 colon
[54] = test system: T-47D breast
[55] = test system: TK-10 renal
[56] = test system: U251 CNS
[57] = test system: UACC-257 melanoma
[58] = test system: UACC-62 melanoma
[59] = test system: UO-31 renal

Compound: O=C1c2ccccc2C(=O)N1CCCC(=O)n1cc(F)c(=O)[nH]c1=O
- TGI [1]: > 100 µM
- TGI [2]: > 100 µM
- TGI [3]: > 100 µM
- TGI [4]: > 100 µM
- TGI [5]: > 100 µM
- TGI [6]: > 100 µM
- TGI [7]: > 100 µM
- TGI [8]: > 100 µM
- TGI [9]: > 100 µM
- TGI [10]: > 100 µM
- TGI [11]: > 100 µM
- TGI [12]: > 100 µM
- TGI [13]: > 100 µM
- TGI [14]: > 100 µM
- TGI [15]: > 24.6 µM
- TGI [16]: > 100 µM
- TGI [17]: > 100 µM
- TGI [18]: > 100 µM
- TGI [19]: > 100 µM
- TGI [20]: > 100 µM
- TGI [21]: > 100 µM
- TGI [22]: > 100 µM
- TGI [23]: > 100 µM
- TGI [24]: > 100 µM
- TGI [25]: > 100 µM
- TGI [26]: > 100 µM
- TGI [27]: > 100 µM
- TGI [28]: > 100 µM
- TGI [29]: > 100 µM
- TGI [30]: > 100 µM
- TGI [31]: > 100 µM
- TGI [32]: > 100 µM
- TGI [33]: > 100 µM
- TGI [34]: > 100 µM
- TGI [35]: > 79 µM
- TGI [36]: > 100 µM
- TGI [37]: > 100 µM
- TGI [38]: > 100 µM
- TGI [39]: > 100 µM
- TGI [40]: > 77.5 µM
- TGI [41]: > 100 µM
- TGI [42]: > 100 µM
- TGI [43]: > 100 µM
- TGI [44]: > 100 µM
- TGI [45]: > 100 µM
- TGI [46]: > 100 µM
- TGI [47]: > 100 µM
- TGI [48]: > 100 µM
- TGI [49]: > 100 µM
- TGI [50]: > 100 µM
- TGI [51]: > 100 µM
- TGI [52]: > 100 µM
- TGI [53]: > 100 µM
- TGI [54]: > 100 µM
- TGI [55]: > 100 µM
- TGI [56]: > 100 µM
- TGI [57]: > 100 µM
- TGI [58]: > 100 µM
- TGI [59]: > 100 µM

Compound: Nc1ccccc1NC(=O)c1ccc(CNC(=O)OCc2cccnc2)cc1
- GI50 [1]: 4.96 µM
- TGI [1]: > 90.9 µM
- GI50 [2]: 0.361 µM
- TGI [2]: 2.98 µM and 4.14 µM
- TGI [3]: > 100 µM
- GI50 [4]: 2.34 µM
- TGI [4]: > 77.7 µM and 25.7 µM
- GI50 [5]: 4.14 µM
- TGI [5]: > 100 µM
- GI50 [6]: 1.17 µM
- TGI [6]: 14.1 µM and > 59.5 µM
- GI50 [7]: 1.94 µM
- TGI [7]: > 100 µM and 21.7 µM
- GI50 [8]: 2.01 µM
- TGI [8]: 8.37 µM and 3.03 µM
- GI50 [9]: 2.26 µM
- TGI [9]: > 100 µM
- GI50 [10]: 3.26 µM
- TGI [10]: > 100 µM
- TGI [11]: 5.44 µM and 9.79 µM
- GI50 [12]: 0.798 µM
- TGI [12]: > 92 µM and 11.6 µM
- GI50 [13]: 8.47 µM
- TGI [13]: > 100 µM
- GI50 [14]: 0.847 µM
- TGI [14]: 26.6 µM and > 22.5 µM
- TGI [15]: > 90 µM
- GI50 [16]: 0.0382 µM
- GI50 [17]: 2.33 µM
- TGI [17]: > 100 µM
- GI50 [18]: 1.04 µM
- GI50 [19]: 3.95 µM
- TGI [19]: > 61.6 µM and 36.2 µM
- GI50 [20]: 0.505 µM
- TGI [20]: > 100 µM
- GI50 [21]: 4.31 µM
- TGI [21]: > 100 µM
- GI50 [22]: 1.06 µM
- TGI [22]: 8.67 µM and 5.94 µM
- GI50 [23]: 2.35 µM
- TGI [23]: > 100 µM and 15.5 µM
- GI50 [24]: 0.577 µM and 0.267 µM
- TGI [24]: > 23.6 µM and 2.39 µM
- GI50 [25]: 0.637 µM
- TGI [25]: > 100 µM
- GI50 [26]: 13.8 µM
- TGI [26]: > 100 µM and 25.6 µM
- GI50 [27]: 0.956 µM
- TGI [27]: 14.8 µM and > 33.1 µM
- TGI [28]: 12.4 µM
- GI50 [29]: 1.93 µM
- TGI [29]: > 85 µM
- GI50 [30]: 0.604 µM
- TGI [30]: 16.9 µM and 5.73 µM
- GI50 [31]: 3.23 µM
- TGI [31]: > 89.4 µM and 14.9 µM
- GI50 [32]: 0.83 µM
- TGI [32]: > 100 µM
- GI50 [33]: 0.698 µM
- TGI [33]: 7.41 µM and > 27.9 µM
- GI50 [34]: 2.38 µM
- TGI [34]: > 67.4 µM
- GI50 [35]: 1.74 µM
- TGI [35]: 11.5 µM and 14.8 µM
- GI50 [36]: 1.31 µM
- TGI [36]: > 100 µM
- GI50 [37]: 1.05 µM
- TGI [38]: > 100 µM
- TGI [39]: > 100 µM
- GI50 [40]: 0.895 µM
- TGI [40]: > 29.5 µM and 4.54 µM
- GI50 [41]: 1.49 µM
- TGI [41]: 6.31 µM and 27.6 µM
- GI50 [42]: 1.86 µM
- TGI [42]: 25 µM and > 74.7 µM
- GI50 [43]: 2.57 µM
- TGI [43]: > 39.8 µM and 16.6 µM
- GI50 [44]: 3.19 µM
- TGI [44]: 78.7 µM and > 52.1 µM
- GI50 [45]: 1.1 µM
- TGI [45]: 15 µM and 3.2 µM
- GI50 [46]: 0.663 µM
- TGI [46]: 5.94 µM and > 45.4 µM
- GI50 [47]: 0.743 µM
- TGI [47]: 2.31 µM and 2.3 µM
- GI50 [48]: 2.75 µM
- TGI [48]: > 100 µM
- GI50 [49]: 9.39 µM
- TGI [49]: > 100 µM
- GI50 [50]: 6.33 µM
- TGI [50]: > 100 µM and 75.2 µM
- TGI [51]: > 100 µM
- GI50 [52]: 0.533 µM
- TGI [52]: > 100 µM
- GI50 [53]: 1.3 µM
- TGI [53]: 34.5 µM and > 100 µM
- GI50 [54]: 0.462 µM
- TGI [54]: > 100 µM
- GI50 [55]: 0.289 µM
- TGI [55]: 38.8 µM and > 100 µM
- GI50 [56]: 2.03 µM
- TGI [56]: > 39.5 µM and 5.74 µM
- TGI [57]: > 29 µM
- GI50 [58]: 0.278 µM
- TGI [58]: 1.77 µM and 4.81 µM
- GI50 [59]: 1.17 µM
- TGI [59]: > 100 µM and 20.3 µM

From PubChem BioAssay (NCI)
